Results reported in US10517913B2, “Composition for prevention, alleviation, or treatment of peripheral neuropathy comprising Lithospermi Radix extract as an effective component” (priority 2015, dated 2019).

Key:
P-gp = assay: Induction of P-gp gene expression in HepaRG (real-time PCR); assay type: in vitro ADME, human; conditions: 10 μM rifampicin (positive control), 24 hours
Procedure: (§1) HepaRG was purchased from the Thermo Fisher Scientific. The cells were used immediately after purchase without any subculture. A William's medium E basal medium supplemented with Thaw, Plate & General Purpose Supplements was used for general cell culture. A William's medium E basal medium supplemented containing Induction Medium Supplements was used for induction experiment. The cells were cultured in a 24-well culture plate coated with collagen type I in an incubator at 37° C., 5% CO2. All culture media and additives used for HepaRG cell culture were purchased from the Thermo Fisher Scientific.
(§2) According to [Materials and Methods 3-4], human hepatoma cell line (HepaRG) were plated at 5×10^5 cells/ml in a 24-well plate coated with collagen type I and cultured for 72 hours at 37° C., 5% CO2. Then, the cells were treated for 24 hours with a positive control drug or with a Lithospermi Radix extract (WLR) at concentrations of 10, 20, 100, and 500 μg/ml. For a positive control drug, 50 μM omeprazole was used for CYP1A2 and CYP2B6, and 10 μM rifampicin was used for CYP3A4 and P-gp. Distilled water was used as a negative control. After 24 hours, total RNA was extracted using an Easy-Spin™ Total RNA extraction kit (iNtRON Biotechnology). cDNA was synthesized from total RNA (500 ng) using oligo dT and iScript cDNA synthesis kit (Bio-Rad). […]

[1] = tested on: astrocytes and microglial cells in spinal cord of peripheral neuropathic animals induced by oxaliplatin; assay: Immunohistological analysis of glial cells (GFAP, Iba-1) in lumbar spinal cord; assay type: in vivo, C57BL/6 mice; conditions: after oxaliplatin 10 mg/kg; WLR 250 mg/kg oral 6 times per week or amifostine 100 mg/kg i.p. 2 times per week, 2 weeks
Source text: (§3) In the present invention, an animal model having peripheral neuropathy was induced by oxaliplatin. Eight-week old male C57BL/6 mice were purchased from the OrientBio. Following 1 week acclimation period in a cage in an animal test room, the base line (BL) of responses of experimental animals to 3 times of mechanical stimulations applied to the right hind footpad of the animal using von Frey filament hair. Then, the animals were divided into different groups (N=8 animals/group). Peripheral neuropathy was induced by injection of 5 mg/kg oxaliplatin through tail veins of animals (once a week, 2 times for 2 weeks, i.e., 10 mg/kg oxaliplatin in total). Oxaliplatin was purchased from the LC Laboratories.
(§4) The specimens were prepared to histologically determine the protective effect of the Lithospermi Radix extract (WLR) against neuronal damage in peripheral neuropathic animals induced by oxaliplatin. Specifically, the animal was anaesthetized by intraperitoneal injection of sodium pentobarbital (50 mg/kg), and then, blood was removed by perfusion of 0.9% physiological saline through the aorta via left ventricle. Following fixation by perfusion of 4% paraformaldehyde solution buffered with 0.1 M phosphate, the 4th to 6th lumbar spinal cords, dorsal root ganglia, and the hind footpad skins were removed. The tissues were further fixed in the same fixation solution as above. The paraffin-embedded tissues were sectioned at a 4 μm thickness. The slices were mounted on a glass slide, dried, and then, kept at room temperature until use.
The slice of spinal cord with 4 μm thickness was subjected to immunofluorescence staining using antibodies against GFAP and Iba-1 which are astrocyte and microglial cell markers, respectively. After removal of paraffin and hydration, the slice was immersed in citrate buffer solution (Vector Lab., USA) for 10 minutes in a microwave to recover antigenicity and increase reactivity. […]
The activity of the glial cells was expressed by the ratio (%) of the area of stained cells relative to the viewing area under a fluorescence microscope. The fluorescence microscopic images were analyzed compared to the control treatment using a software (Cellsense, Olympus).
Specifically, peripheral neuropathy was induced in male C57BL/6 mice by oxaliplatin (10 mg/kg) according to [Materials and Methods 4]. […] Using the obtained specimen, activation of astrocytes and microglial cells in dorsal horn areas of the lumbar spinal cord of the animals was measured by detecting GFAP and Iba-1 marker proteins, respectively, according to [Materials and Methods 6-2]. Distribution of intraepidermal nerve fiber (IENF) in the hind footpad skin was measured by detecting PGP9.5 marker protein according to [Materials and Methods 6-3].

[2] = tested on: dorsal root ganglion (DRG) neurons of peripheral neuropathic animals induced by oxaliplatin; assay: Morphological cell analysis of dorsal root ganglion neurons; assay type: in vivo, C57BL/6 mice; conditions: after oxaliplatin 10 mg/kg; WLR 250 mg/kg oral 6 times per week or amifostine 100 mg/kg i.p. 2 times per week, 2 weeks
Source text: as §3, §4
Dorsal root ganglions were cut out, sectioned into slices with 4 μm thickness and then, subjected to Azan-Mallory trichrome staining. The nucleoli in the stained slice were examined under an optical microscope. Among the neurons having discernible nucleoli, the number of neurons having eccentric nucleoli or multinucleolated nucleus was expressed as a percentage of the total neurons in a viewing area.
Specifically, peripheral neuropathy was induced in male C57BL/6 mice by oxaliplatin (10 mg/kg) according to [Materials and Methods 4]. After that, the mice were orally administered 6 times per week with 250 mg/kg of a Lithospermi Radix extract (WLR) prepared in [Materials and Methods 1] or 0.5% carboxymethyl cellulose (CMC) as a negative control. In addition, 100 mg/kg amifostine was intraperitoneally administered 2 times per week as a positive control. After drug administration for 2 weeks, dorsal root ganglion (DRG) was cut out according to [Materials and Methods 6-1]. Using the obtained specimen, morphological change of nucleus and nucleoli in the dorsal root ganglion (DRG) neurons was observed according to [Materials and Methods 6-4].

[3] = tested on: intraepidermal nerve fiber (IENF) of peripheral neuropathic animals induced by oxaliplatin; assay: Quantitative histological analysis of intraepidermal nerve fiber (PGP9.5) in hind footpad skin; assay type: in vivo, C57BL/6 mice; conditions: after oxaliplatin 10 mg/kg; WLR 250 mg/kg oral 6 times per week or amifostine 100 mg/kg i.p. 2 times per week, 2 weeks
Source text: as §3, with “Laboratories. […]” for “Laboratories.”
The slice of hind footpad skin with 4 μm thickness was subjected to immunofluorescence staining using a PGP9.5 antibody, a marker for IENF in skin. […] The expression level of intraepidermal nerve fibers was expressed by the number of fluorescence-stained nerves in epidermis which were stemmed from dermis per field length of the basal membrane of epidermis (IENF/mm) within a viewing area under a fluorescence microscope. The fluorescent microscopic images were analyzed compared with control treatment using a software (Cellsense, Olympus). […]

CYP1A2 = assay: Induction of CYP1A2 gene expression in HepaRG (real-time PCR); assay type: in vitro ADME, human; conditions: 50 μM omeprazole (positive control), 24 hours
Procedure: as §1, §2

CYP2B6 = assay: Induction of CYP2B6 gene expression in HepaRG (real-time PCR); assay type: in vitro ADME, human; conditions: 50 μM omeprazole (positive control), 24 hours
Procedure: as §1, §2

CO[C@H]1/C=C/O[C@@]2(C)Oc3c(C)c(O)c4c(O)c(c(/C=N/N5CCN(C)CC5)c(O)c4c3C2=O)NC(=O)/C(C)=C\C=C\[C@H](C)[C@H](O)[C@@H](C)[C@@H](O)[C@@H](C)[C@H](OC(C)=O)[C@@H]1C [rifampicin]
expression of P-gp (P-gp): effectively enhanced

NCCCNCCSP(=O)(O)O [amifostine]
oxaliplatin-increased number of activated astrocytes (GFAP positive cells) [1]: reduced to the same extent
oxaliplatin-increased number of activated microglial cells (Iba-1 positive cells) [1]: reduced to the same extent
oxaliplatin-induced morphological change: DRG neurons having eccentric nucleoli [2]: reduced to the same extent
oxaliplatin-induced morphological change: number of neurons having multinucleolated nucleus [2]: decreased with statistical significance
oxaliplatin-reduced densities of intraepidermal nerve fibers in hind footpad skin [3]: recovered

COc1ccc2[nH]c([S+]([O-])Cc3ncc(C)c(OC)c3C)nc2c1 (centres unmarked) [omeprazole]
expression of CYP1A2 (CYP1A2): effectively enhanced
expression of CYP2B6 (CYP2B6): effectively enhanced
